Results from US20260376293A1, “METHODS FOR STUDYING GPR158 PHARMACOLOGY AND IDENTIFICATION OF ITS LIGANDS” (UNIVERSITY OF FLORIDA RESEARCH FOUNDATION, INCORPORATED, priority 2022, published 2026).

Target: T1, GPR158 (Homo sapiens, UniProt Q5T848)
T1 construct: expressed in transfected cells; host or cells: HEK293T/17
T1 sequence (Q5T848 24-1215): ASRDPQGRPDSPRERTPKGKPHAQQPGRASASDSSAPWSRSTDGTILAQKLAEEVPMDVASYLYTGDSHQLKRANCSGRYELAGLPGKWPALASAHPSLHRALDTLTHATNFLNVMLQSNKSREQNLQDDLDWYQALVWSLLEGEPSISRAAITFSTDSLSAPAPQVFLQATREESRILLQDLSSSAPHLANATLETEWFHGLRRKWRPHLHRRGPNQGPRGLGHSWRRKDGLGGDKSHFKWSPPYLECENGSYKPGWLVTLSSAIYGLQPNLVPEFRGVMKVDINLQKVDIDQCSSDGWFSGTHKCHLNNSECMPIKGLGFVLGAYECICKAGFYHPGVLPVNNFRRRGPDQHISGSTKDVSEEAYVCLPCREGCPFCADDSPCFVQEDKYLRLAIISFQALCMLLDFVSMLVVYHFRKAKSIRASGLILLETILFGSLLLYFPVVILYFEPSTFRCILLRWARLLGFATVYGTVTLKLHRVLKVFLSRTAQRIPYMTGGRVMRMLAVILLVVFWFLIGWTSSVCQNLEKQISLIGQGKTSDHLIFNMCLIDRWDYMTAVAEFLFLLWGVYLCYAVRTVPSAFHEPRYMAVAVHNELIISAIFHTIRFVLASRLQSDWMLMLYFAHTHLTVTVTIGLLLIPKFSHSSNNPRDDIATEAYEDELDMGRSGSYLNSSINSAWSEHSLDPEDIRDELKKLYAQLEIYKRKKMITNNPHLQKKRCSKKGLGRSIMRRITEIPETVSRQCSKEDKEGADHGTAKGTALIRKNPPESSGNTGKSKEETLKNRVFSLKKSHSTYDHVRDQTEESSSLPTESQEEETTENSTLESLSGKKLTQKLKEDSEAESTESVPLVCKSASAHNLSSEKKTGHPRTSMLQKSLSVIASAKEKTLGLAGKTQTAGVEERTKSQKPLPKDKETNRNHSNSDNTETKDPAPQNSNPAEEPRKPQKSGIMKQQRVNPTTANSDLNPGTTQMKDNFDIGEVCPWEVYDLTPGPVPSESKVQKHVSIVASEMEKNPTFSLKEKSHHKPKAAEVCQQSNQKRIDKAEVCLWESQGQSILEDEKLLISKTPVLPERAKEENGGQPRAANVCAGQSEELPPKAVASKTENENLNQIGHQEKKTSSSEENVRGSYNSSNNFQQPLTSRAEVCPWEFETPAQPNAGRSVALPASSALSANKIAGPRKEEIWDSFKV
T1 sequence (P49802 1-495 partner): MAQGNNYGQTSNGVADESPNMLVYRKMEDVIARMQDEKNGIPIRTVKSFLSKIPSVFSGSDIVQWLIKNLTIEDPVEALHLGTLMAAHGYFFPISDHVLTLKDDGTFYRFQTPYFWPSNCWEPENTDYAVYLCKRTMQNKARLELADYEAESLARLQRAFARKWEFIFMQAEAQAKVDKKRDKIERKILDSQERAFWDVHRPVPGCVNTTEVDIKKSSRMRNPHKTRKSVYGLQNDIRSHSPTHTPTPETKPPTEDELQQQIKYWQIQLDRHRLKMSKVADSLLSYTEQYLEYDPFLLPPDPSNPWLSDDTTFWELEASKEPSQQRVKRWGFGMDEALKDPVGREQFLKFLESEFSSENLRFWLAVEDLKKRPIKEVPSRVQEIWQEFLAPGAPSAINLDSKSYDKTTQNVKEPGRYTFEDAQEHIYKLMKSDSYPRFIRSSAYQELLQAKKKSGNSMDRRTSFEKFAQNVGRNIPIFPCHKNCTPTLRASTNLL
T1 sequence (O14775 1-395 partner): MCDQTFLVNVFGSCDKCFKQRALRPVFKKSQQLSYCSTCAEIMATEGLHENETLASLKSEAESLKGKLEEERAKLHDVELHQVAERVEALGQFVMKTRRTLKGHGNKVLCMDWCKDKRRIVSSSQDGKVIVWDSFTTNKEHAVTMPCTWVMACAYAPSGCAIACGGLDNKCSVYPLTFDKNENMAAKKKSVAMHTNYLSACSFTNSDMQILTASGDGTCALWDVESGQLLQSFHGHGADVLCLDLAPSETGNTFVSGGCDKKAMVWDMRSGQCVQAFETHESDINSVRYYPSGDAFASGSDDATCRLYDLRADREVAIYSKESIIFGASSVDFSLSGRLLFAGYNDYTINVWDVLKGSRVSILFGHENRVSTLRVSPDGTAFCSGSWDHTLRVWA
Assay: HTRF cAMP Gαi assay, HEK293T/17 cells
Assay type: cell-based
Conditions: forskolin; GPR158-RGS7/Gβ5, HEK293T/17
Method: FIGS. 18A-18C: A. Schematic representation of HTRF Gαi CAMP assay. B. cAMP standard curve to establish assay window and dynamic range. The data shown here indicate the HTRF ratio plotted as a function of various concentrations of cAMP standards (0.17 nM to 712 nM). The curve fitting was performed using Nonlinear regression analysis in Graphpad Prism software. C. Gly treatment of GPR158-RGS7/Gβ5 expressing HEK293T/17 cells leads to depletion of cAMP levels in a concentration dependent manner. Data shown here represent the HTRF ratio normalized with respect to the buffer treated cells (control) (Mean±SEM from 1 experiment performed in triplicates).
HEK293T/17 cells were transfected with GPR158, RGS7 and Gβ5 plasmids as mentioned above by Maxcyte electroporation. 24 hours post transfection, cells were harvested by centrifugation, counted, and seeded in a white 384 well plate at a density of 6000 cells per well after resuspending in the stimulation buffer provided with the kit. […] The HTRF signal was measured using the HTRF optic module (donor excitation: 337 nm, donor emission: 620 nm, acceptor emission 665 nm) and laser energy source in the Pherastar FSX microplate reader (BMG Labtech).
The data were plotted as the ratio of fluorescence emission intensities by acceptor and donor (Em 665 nm/Em 620 nm). […]

NCC(=O)O [glycine]
HTRF signal change (cAMP decrease): increase in HTRF signal in a Gly dose dependent fashion
